The values below come from paper PMC7259601 (PLoS ONE, 2020).

For one assay, the system named is KDM1A. The experiment in a line: KDM1A target engagement in brain cortex (chemoprobe ELISA). The assay is classed as in vivo, SAMP8 mice. The conditions noted are these: end of 2 month treatment. The method, then:
Native protein extracts of cells or tissues were obtained in presence of 25 nM OG-881 chemoprobe according the protocol described in Mascaró et al..
Luminescent ELISA: for quantification of total amount of KDM1A protein (TOTAL KDM1A), Luminunc Plates Maxisorp (NUNC; #436110) were coated with a monoclonal anti-KDM1A antibody (Abcam; #ab53269) at 2 µg/mL in PBS. For quantification of the fraction not bound to inhibitor (FREE KDM1A), plates were coated with streptavidin (Promega Biotech Ibérica; #Z7041) at 10 µg/mL in PBS. Coating was performed at 4°C O/N. Wells were washed 3 times in PBS, 0.1% Tween-20 and blocked with PBS-BSA 1% (Sigma; #A3059) for 2 hr. A KDM1A calibration curve of full length rKDM1A (Active Motif; #31334) diluted in PBS was included in each plate. Plates were then incubated 1 hr at RT and washed 5 times. […] Plates were centrifuged during 30 sec to 1,500 x g, shaken for 1 min at 100rpm and incubated inside the micropate reader (Infinite 200, Tecan) for 3 min at 25 °C. The relative luminescence units (RLU) readouts were acquired using a 1000 msec integration time and 150 msec settle time.
All assays were run as triplicate technical replicates (n = 3). After raw data processing (robust elimination of outliers according to Grubbs criteria and subtraction of blank signal on technical replicates), the target engagement was calculated as […]

Assay [1] concerns COMT (catechol- O-methyl transferase). In words: CEREP Diversity Panel. The assay is classed as biochemical. Set-up: dose or concentration left out as unconfirmed. As to the method: (§1) […]. MAO-A inhibition at 10 μM was 37%, in line with internal data.
A further assay relates to ATPase (Na+/K+). In words: CEREP Diversity Panel. The assay is classed as biochemical. The arrangement: dose or concentration left out as unconfirmed. As to the method: as §1
The test system of assay [2] is adenylyl cyclase (activator effect). In words: CEREP Diversity Panel. The arrangement: dose or concentration left out as unconfirmed. The assay is classed as biochemical. The method, then:
as §1

The target in another assay is (h)p300 (Homo sapiens, UniProt Q09472). In words: Epigenetic selectivity profile. The class given is biochemical. As to the method:
as §1

Another assay deals with HDAC11 (h) (Homo sapiens, UniProt Q96DB2). In words: Epigenetic selectivity profile. The class given is biochemical. The method, then: as §1
The target of another assay is HDAC4 (h) (Homo sapiens, UniProt P56524). The experiment in a line: Epigenetic selectivity profile. The assay is classed as biochemical. The method, then: as §1
The target in a further assay is SUV39H1 (h) (Homo sapiens, UniProt O43463). The experiment in a line: Epigenetic selectivity profile. The assay is classed as biochemical. The method, then: as §1
For assay [3], the target named is sirtuin 1 (h) (inhibitor effect) (Homo sapiens, UniProt Q96EB6). The experiment in a line: Epigenetic selectivity profile. The assay is classed as biochemical. As to the method:
as §1

Another assay concerns the target FBXL10 (h) (Homo sapiens, UniProt Q8NHM5). In words: Epigenetic selectivity profile. The assay is classed as biochemical. The method, then: as §1
The target in a further assay is HDAC6 (h) (Homo sapiens, UniProt Q9UBN7). In words: Epigenetic selectivity profile. The assay is classed as biochemical. The method, then: as §1
For a further assay, the target named is DOT1L (h) (Homo sapiens, UniProt Q8TEK3). The experiment in a line: Epigenetic selectivity profile. The assay is classed as biochemical. The method, then: as §1
For a further assay, the target named is JARID1A (h) (Homo sapiens, UniProt P29375). The experiment in a line: Epigenetic selectivity profile. The class given is biochemical. As to the method:
as §1

The target of a further assay is sirtuin 2 (h) (Homo sapiens, UniProt Q8IXJ6). The experiment in a line: Epigenetic selectivity profile. The assay is classed as biochemical. As to the method: as §1
A further assay has as its target JMJD1A (h) (Homo sapiens, UniProt Q9Y4C1). In words: Epigenetic selectivity profile. The class given is biochemical. The method, then:
as §1

Another assay has as its target HDAC3 (h) (Homo sapiens, UniProt O15379). The experiment in a line: Epigenetic selectivity profile. The class given is biochemical. As to the method: as §1
The target of a further assay is JMJD2A (h) (Homo sapiens, UniProt O75164). The experiment in a line: Epigenetic selectivity profile. The assay is classed as biochemical. The method, then:
as §1

Another assay addresses JMJD3 (h) (Homo sapiens, UniProt O15054). In words: Epigenetic selectivity profile. The class given is biochemical. The method, then:
as §1

A further assay addresses DNMT1 (h) (Homo sapiens, UniProt P26358). The experiment in a line: Epigenetic selectivity profile. The class given is biochemical. The method, then: as §1
In another assay the target is SETD7 (h) (Homo sapiens, UniProt Q8WTS6). In words: Epigenetic selectivity profile. The assay is classed as biochemical. The method, then:
as §1

A further assay concerns the target MLL complex (h) (Homo sapiens, UniProt Q03164). The experiment in a line: Epigenetic selectivity profile. The class given is biochemical. As to the method:
as §1

Molecules are shown by their SMILES.

Sequence of HDAC4 (h) (P56524 whole entry): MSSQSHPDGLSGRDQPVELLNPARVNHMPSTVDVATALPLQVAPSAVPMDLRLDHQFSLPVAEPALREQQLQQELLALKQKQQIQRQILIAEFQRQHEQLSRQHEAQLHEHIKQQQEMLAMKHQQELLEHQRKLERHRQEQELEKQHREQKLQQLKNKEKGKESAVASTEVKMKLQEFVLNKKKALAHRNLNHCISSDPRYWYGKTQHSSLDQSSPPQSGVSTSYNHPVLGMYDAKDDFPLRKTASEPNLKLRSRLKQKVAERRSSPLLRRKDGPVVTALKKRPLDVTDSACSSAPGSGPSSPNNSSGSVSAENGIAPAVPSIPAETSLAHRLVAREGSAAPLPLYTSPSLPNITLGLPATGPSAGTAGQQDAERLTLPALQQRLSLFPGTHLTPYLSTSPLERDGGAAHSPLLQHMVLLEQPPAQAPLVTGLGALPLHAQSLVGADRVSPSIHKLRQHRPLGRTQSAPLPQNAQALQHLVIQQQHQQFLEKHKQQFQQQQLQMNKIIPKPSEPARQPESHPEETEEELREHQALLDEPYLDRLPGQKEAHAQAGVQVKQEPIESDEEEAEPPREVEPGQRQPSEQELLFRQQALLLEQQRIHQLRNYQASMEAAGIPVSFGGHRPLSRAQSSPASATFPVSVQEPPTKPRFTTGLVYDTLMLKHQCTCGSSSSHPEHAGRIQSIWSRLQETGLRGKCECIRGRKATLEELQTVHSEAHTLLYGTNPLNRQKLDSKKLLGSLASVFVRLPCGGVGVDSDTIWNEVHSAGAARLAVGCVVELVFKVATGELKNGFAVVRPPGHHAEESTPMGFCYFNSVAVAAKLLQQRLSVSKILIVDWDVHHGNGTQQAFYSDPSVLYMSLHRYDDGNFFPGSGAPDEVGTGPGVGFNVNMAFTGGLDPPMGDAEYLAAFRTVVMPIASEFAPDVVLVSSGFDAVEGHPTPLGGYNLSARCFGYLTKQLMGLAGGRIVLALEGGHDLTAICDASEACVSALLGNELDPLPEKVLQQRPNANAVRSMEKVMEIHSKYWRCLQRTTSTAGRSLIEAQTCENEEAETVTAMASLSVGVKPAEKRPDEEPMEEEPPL
Sequence of sirtuin 2 (h) (Q8IXJ6 whole entry): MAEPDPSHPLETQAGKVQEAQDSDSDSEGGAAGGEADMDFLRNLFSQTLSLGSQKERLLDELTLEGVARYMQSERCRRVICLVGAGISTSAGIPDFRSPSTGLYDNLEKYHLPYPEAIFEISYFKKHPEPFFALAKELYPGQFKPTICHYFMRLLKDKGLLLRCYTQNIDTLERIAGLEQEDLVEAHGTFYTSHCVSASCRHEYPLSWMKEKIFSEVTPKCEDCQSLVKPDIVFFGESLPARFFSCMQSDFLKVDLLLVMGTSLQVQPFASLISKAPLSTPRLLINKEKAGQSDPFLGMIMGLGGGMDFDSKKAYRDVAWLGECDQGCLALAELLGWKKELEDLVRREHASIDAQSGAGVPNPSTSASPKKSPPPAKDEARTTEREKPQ
Sequence of JMJD2A (h) (O75164 whole entry): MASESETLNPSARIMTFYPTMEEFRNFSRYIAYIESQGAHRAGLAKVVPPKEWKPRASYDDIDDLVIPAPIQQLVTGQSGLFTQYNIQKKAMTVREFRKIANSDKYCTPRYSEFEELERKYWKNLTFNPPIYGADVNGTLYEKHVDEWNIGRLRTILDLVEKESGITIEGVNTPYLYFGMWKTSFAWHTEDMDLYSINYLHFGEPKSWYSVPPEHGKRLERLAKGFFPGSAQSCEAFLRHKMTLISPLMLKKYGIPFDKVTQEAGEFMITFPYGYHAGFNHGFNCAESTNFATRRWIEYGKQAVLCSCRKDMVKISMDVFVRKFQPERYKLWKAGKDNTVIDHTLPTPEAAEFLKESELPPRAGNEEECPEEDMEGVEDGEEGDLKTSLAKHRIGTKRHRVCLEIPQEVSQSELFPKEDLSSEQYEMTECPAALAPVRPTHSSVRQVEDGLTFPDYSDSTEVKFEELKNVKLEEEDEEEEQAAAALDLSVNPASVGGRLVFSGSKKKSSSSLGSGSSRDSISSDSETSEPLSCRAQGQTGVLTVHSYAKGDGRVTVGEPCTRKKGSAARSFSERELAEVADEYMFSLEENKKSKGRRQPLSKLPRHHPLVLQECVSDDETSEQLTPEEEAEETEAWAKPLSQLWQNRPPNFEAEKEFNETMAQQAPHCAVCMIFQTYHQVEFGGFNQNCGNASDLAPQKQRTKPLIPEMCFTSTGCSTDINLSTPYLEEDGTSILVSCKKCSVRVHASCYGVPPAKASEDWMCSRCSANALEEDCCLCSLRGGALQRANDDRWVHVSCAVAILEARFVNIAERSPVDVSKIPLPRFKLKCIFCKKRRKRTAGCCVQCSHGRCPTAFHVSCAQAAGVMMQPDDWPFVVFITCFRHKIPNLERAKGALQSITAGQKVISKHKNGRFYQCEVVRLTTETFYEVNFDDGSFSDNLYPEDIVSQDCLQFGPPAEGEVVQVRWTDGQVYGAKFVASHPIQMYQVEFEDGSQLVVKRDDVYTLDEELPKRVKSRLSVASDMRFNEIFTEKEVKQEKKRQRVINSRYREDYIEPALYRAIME
Sequence of HDAC6 (h) (Q9UBN7 whole entry): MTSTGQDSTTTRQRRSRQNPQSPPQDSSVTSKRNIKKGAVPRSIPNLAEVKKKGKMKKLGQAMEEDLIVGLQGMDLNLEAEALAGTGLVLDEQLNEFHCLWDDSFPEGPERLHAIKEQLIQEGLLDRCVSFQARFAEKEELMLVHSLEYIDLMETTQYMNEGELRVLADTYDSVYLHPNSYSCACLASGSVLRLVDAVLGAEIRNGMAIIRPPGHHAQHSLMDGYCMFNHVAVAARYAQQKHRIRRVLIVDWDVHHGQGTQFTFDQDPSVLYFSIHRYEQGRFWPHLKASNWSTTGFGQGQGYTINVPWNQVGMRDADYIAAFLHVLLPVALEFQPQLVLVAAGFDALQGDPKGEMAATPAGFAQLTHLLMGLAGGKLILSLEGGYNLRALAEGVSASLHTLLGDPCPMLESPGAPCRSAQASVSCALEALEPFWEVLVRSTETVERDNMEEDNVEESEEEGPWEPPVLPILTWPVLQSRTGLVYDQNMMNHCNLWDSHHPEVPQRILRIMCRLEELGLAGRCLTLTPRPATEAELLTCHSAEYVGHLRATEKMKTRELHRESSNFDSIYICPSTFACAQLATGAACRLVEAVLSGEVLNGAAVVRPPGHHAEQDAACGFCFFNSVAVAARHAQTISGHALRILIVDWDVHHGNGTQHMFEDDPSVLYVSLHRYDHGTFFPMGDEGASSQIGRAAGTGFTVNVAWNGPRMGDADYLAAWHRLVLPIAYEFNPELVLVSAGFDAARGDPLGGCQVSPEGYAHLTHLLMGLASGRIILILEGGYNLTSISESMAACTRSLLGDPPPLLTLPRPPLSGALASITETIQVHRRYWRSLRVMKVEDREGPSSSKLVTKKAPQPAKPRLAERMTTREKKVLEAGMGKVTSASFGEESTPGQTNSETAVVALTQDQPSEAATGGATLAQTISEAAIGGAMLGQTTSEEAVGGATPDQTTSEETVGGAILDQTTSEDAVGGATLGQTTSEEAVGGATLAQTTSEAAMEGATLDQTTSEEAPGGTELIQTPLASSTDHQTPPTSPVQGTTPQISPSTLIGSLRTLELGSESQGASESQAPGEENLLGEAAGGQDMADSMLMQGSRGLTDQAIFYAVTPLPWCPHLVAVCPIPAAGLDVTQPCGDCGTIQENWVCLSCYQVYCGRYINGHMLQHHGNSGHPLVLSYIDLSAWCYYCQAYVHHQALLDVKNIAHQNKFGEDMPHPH
Sequence of SUV39H1 (h) (O43463 whole entry): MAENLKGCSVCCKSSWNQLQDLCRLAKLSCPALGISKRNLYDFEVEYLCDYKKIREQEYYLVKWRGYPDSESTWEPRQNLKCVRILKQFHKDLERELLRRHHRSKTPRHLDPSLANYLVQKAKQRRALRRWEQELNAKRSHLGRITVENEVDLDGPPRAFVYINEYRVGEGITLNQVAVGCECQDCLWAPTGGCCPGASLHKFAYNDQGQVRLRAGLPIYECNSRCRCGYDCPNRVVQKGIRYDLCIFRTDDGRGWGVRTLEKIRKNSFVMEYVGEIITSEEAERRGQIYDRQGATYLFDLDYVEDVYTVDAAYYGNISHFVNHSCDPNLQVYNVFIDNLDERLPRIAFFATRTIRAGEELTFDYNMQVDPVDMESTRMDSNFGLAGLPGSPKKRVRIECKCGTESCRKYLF
Sequence of SETD7 (h) (Q8WTS6 whole entry): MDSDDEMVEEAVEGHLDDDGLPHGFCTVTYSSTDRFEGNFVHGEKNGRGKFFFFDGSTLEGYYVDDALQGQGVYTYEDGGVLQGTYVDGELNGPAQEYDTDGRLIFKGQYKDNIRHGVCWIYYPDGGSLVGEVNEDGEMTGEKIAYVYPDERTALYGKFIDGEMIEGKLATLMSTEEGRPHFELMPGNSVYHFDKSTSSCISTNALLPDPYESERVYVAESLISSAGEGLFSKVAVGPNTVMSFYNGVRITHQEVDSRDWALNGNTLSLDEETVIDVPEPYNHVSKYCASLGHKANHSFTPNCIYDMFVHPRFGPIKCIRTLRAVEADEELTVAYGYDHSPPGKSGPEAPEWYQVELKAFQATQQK
Sequence of HDAC11 (h) (Q96DB2 whole entry): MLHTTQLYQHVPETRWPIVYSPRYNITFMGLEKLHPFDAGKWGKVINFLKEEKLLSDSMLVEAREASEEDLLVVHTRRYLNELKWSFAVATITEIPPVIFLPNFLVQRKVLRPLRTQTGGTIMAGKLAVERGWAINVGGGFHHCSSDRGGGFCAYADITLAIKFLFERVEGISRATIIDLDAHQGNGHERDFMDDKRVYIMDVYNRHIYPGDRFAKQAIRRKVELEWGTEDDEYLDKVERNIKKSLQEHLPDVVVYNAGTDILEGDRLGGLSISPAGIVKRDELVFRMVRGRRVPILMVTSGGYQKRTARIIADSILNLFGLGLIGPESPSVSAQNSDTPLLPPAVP

On to `Nc1nnc(CN[C@@H]2C[C@H]2c2ccc(OCc3ccccc3)cc2)o1` [ORY-2001, vafidemstat], for which, in the assay with KDM1A, the “KDM1A target engagement in cortex” value was “correlated with the observed functional effects on memory”. Further, the “% inhibition” value in assay [1] came to 11%; in the assay on ATPase (Na+/K+), 4%; in [2], 0%. The inhibition at 10 µM on (h)p300 is 0%; against HDAC11 (h), -2%; at HDAC4 (h), 0%; against SUV39H1 (h), -7%; in assay [3], 1%; on FBXL10 (h) it was 8%. The inhibition at 10 µM on HDAC6 (h) is 0%; at DOT1L (h), -1%; at JARID1A (h), 2%; at sirtuin 2 (h), 5%; against JMJD1A (h) it was -11%; at HDAC3 (h), -1%. Further, the inhibition at 10 µM on JMJD2A (h) is 7%; against JMJD3 (h), 4%; against DNMT1 (h), 15%; at SETD7 (h) it was -3%; against MLL complex (h), 3%.
